Experimental findings from patent publication US9174979B2, “Phenanthroindolizidine compound and NFκB inhibitor containing same as active ingredient” (KABUSHIKI KAISHA YAKULT HONSHA, priority 2008, dated 2015) are described below.

Marks after values point to notes of the source that are not given here. A value given as a limit tells only on which side of the number the result lay.

Data set [1] deals with NFκB. Kind of data set: NFκB luciferase reporter assay in SW480/NRE-Luc cells stimulated with TNFα. The class given is cell-based, human. The following applies: for NFκB inhibitory activity IC50: SW480/NRE-Luc cells, 50 ng/mL TNFα, luciferase expression; for IC50: Homo sapiens, SW480, read-out: NFκB inhibitory activity IC50. An excerpt: (§1) The action of the phenanthroindolizidine alkaloid compound of the present invention on the NFκB activity was studied in a luciferase assay. Human colon cancer SW480 cells were transfected with pNFκB-Luc Plasmid (Stratagene), which is a reporter vector in which a five-time tandem repeat of the NFκB responsive element (NRE) is integrated into the upstream of the luciferase gene, using Lipofectamine 2000 (Invitrogen Corporation) in accordance with the attached operating procedure. Subsequently, the cells were cultured in an RPMI1640 medium containing 10% FBS, 100 U/mL penicillin, 100 μg/mL streptomycin, and 0.5 mg/mL G418 to produce SW480 cells having the luciferase gene, the expression of which is regulated by NRE, stably introduced therein (SW480/NRE-Luc cells). Likewise, SW480 cells were transfected with pGL3-Control Vector (Promega Corporation), which is a reporter vector in which the SV40 promoter is integrated into the upstream of the luciferase gene, to produce SW480 cells having the luciferase gene, the expression of which is regulated by the SV40 promoter, stably introduced therein (SW480/SV40-Luc cells). The SW480/NRE-Luc cells or the SW480/SV40-Luc cells were suspended in an RPMI1640 medium containing 10% FBS, 100 U/mL penicillin, and 100 μg/mL streptomycin (10% FBS/RPMI1640), and then seeded in a 96-well microplate, followed by culturing under conditions of 5% CO2 and at 37° C. (5000 cells/well). After an overnight culture, the compound of the present invention was added, followed by culturing for one hour. Further, 50 ng/mL TNFα (Sigma-Aldrich Corporation) was added, followed by culturing for four hours. Subsequently, a Steady-Glo Luciferase Assay reagent (Promega Corporation) was added, and the luminescent intensity was detected by SpectraMax M5e (Molecular Devices, Inc.) to measure the intracellular luciferase activity. It is to be noted that the action of the compound of the present invention on the NFκB activity or the SV40 promoter activity was shown as IC50 values (the concentration of a test compound needed for 50% inhibition of the induction of the luciferase expression).
A general note: Reporter assays use an easily measured gene product as a stand-in for the process of interest.

Data set [2] relates to human colon cancer SW480 cells. In words: Inhibitory action on the proliferation of SW480 cells. The class given is cell-based. Particulars: 48 hours culture, TetraColor ONE; for IC50: Homo sapiens, SW480. As for the experimental part: (§2) The action of the phenanthroindolizidine alkaloid compound of the present invention on the proliferation of human colon cancer SW480 cells, HT-29 cells, and human non-small cell lung cancer A549 cells was studied. The SW480 cells were suspended in a 10% FBS/RPMI1640 and then seeded in a 96-well microplate, followed by culturing in 5% CO2 at 37° C. (2000 cells/well). The A549 cells and the HT-29 cells were each suspended in a DMEM medium containing 10% FBS, 100 U/mL penicillin, and 100 μg/mL streptomycin (10% FBS/DMEM) and a DMEM F-12 HAM medium containing 10% FBS, 100 U/mL penicillin, and 100 μg/mL streptomycin (10% FBS/DMEM F12 HAM), and then seeded in 96-well microplates, followed by culturing in 5% CO2 at 37° C. (1000 cells/well). After an overnight culture, the compound of the present invention was added, followed by further culturing for 48 hours (SW480 cells) and 96 hours (A549 cells and HT-29 cells). After culturing, the number of viable cells was counted using TetraColor ONE (Seikagaku Corporation) in accordance with the attached operating procedure. The results were expressed as the concentration of a test compound needed for 50% inhibition of the proliferation of the cells (IC50).

Data set [3] has as its system human non-small cell lung cancer A549 cells. In words: Inhibitory action on the proliferation of A549 cells. The following applies: 96 hours culture, TetraColor ONE; for IC50: Homo sapiens, A549. Type of data set: cell-based. As for the experimental part: as §2
For data set [4], the system named is SV40 promoter. Kind of data set: SV40 promoter luciferase reporter assay in SW480/SV40-Luc cells. Type of data set: cell-based, human. Particulars: for SV40 promoter inhibitory activity IC50: SW480/SV40-Luc cells, luciferase expression; for IC50: Homo sapiens, SW480, read-out: SV40 promoter inhibitory activity IC50.
From the text: as §1

In data set [5] the test system is mice. Kind of data set: Animal toxicity test in mice transplanted with Meth A cells. The class given is in vivo, mouse. The following applies: intravenous on days 1, 5, 9, observed for three weeks. As for the experimental part: Also, the toxicity of known phenanthroindolizidine alkaloid compounds in mice, namely (12aS,13S)-6,7-dimethoxy-9,10,11,12,12a,13-hexahydro-9a-aza-cyclopenta[b]triphenylene-3,13-diol (known compound 1; refer to WO01/023384) and (12aS,13S)-3,6,7-trimethoxy-9,10,11,12,12a,13-hexahydro-9a-aza-cyclopenta[b]triphenylene-13-ol (known compound 2; refer to Planta Med., 2002, 68: 186-188), was simultaneously studied. To a control group, a physiological saline solution as a solvent, was administered.

The subject of data set [6] is human colon cancer HT-29 cells. Kind of data set: Inhibitory action on the proliferation of HT-29 cells. The class given is cell-based. The following applies: 96 hours culture, TetraColor ONE; for IC50: Homo sapiens, HT-29. As for the experimental part:
as §2

Data set [7] deals with mouse fibrosarcoma Meth A cells. Kind of data set: Antitumor effect in mice transplanted with mouse fibrosarcoma Meth A cells. Type of data set: in vivo. The following applies: intravenous on days 1, 5, 9, BALB/c mice, tumor weight on day 21. The protocol: The antitumor effect of the phenanthroindolizidine alkaloid compound of the present invention in vivo was studied using mice transplanted with mouse fibrosarcoma Meth A cells. Meth A cells were transplanted subcutaneously in the inguinal region of male 7-week-old BALB/c mice (2.5×10^5 cells/mouse). Subsequently, on days 1, 5, and 9, the compound of the present invention was intravenously administered. To a control group, physiological saline as a solvent, was administered. On day 21 after the cell transplantation, tumor was excised and measured for its weight, and subsequently a tumor growth-inhibition rate IR (%) was obtained by the following formula. Tumor growth-inhibition rate IR(%)=(1−the weight of the tumor in an administration group/the weight of the tumor in a control group)×100

In data set [8] the test system is human colon cancer HCT116 cells. Kind of data set: Antitumor effect in mice transplanted with human colon cancer HCT116 cells. The class given is in vivo. Particulars: intraperitoneal on days 1 to 5 and 8 to 12, BALB/c nude mice, tumor weight on day 21. An excerpt:
The antitumor effect of the phenanthroindolizidine alkaloid compound of the present invention in vivo was studied using mice transplanted with human colon cancer HCT116 cells. HCT116 cells were transplanted subcutaneously in the inguinal region of male 6-week-old BALB/c nude mice (2×10^6 cells/mouse). On days 1 to 5 and on days 8 to 12 after the time at which the estimated tumor volume obtained by 1/2ab^2 (a and b indicate the major axis and the minor axis of tumor, respectively) reached approximately 100 mm^3 (day 0), the compound of the present invention was administered (intraperitoneal administration). To a control group, a 5% glucose solution as a solvent, was administered. On day 21, tumor was excised and measured for its weight, and subsequently a tumor proliferation-inhibition rate IR (%) was calculated.

Take `COc1cc2c3c(c4ccc(O)cc4c2cc1OC)[C@H](OC(C)=O)[C@@H]1CCCN1C3.Cl` [Compound 5, acetic acid(12aS,13S)-3-hydroxy-6,7-dimethoxy-9,10,11,12,12a,13-hexahydro-9a-aza-cyclopenta[b]triphenylene-13-yl ester hydrochloride]: the “NFκB inhibitory activity IC50” value in data set [1] was found to be 0.027 µg/mL. For the same molecule, in data set [2], the “SW480 proliferation inhibitory action IC50” value was determined as 0.005 µg/mL. The “A549 proliferation inhibitory action IC50” value in data set [3] came out at 0.0005 µg/mL. The “SV40 promoter inhibitory activity IC50” value in data set [4] was greater than 0.1 µg/mL. Further, the Mortality rate in data set [5] (total dose 25 mg/kg) and in data set [5] (total dose 50 mg/kg) was 0/5 in each case. In data set [6], the “HT-29 proliferation inhibitory action IC50” value is 0.0023 µg/mL.

As usually defined, the IC50 is the midpoint of a concentration-inhibition curve. On to `COc1cc2c3c(c4ccc(O)cc4c2cc1OC)C(O)C1(C)CCCN1C3.Cl` (centres unmarked) [Compound 6, 6,7-dimethoxy-12a-methyl-9,10,11,12,12a,13-hexahydro-9a-aza-cyclopenta[b]triphenylene-3,13-diol hydrochloride], for which the IC50 in data set [1] was 1.92 µg/mL; in data set [2], 3.12 µg/mL; in data set [3] it was 0.757 µg/mL; in data set [4], greater than 10 µg/mL; in data set [6] it was 0.839 µg/mL. In addition, the Mortality rate in data set [5] (total dose 25 mg/kg) and in data set [5] (total dose 50 mg/kg) was 0/5 throughout.

As for `Cl.Oc1ccc2c3c(c4cc5c(cc4c2c1)OCO5)CN1CCC[C@H]1[C@H]3O` [Compound 8, (12aS,13S)-6,7-methylenedioxy-9,10,11,12,12a,13-hexahydro-9a-aza-cyclopenta[b]triphenylene-3,13-diol hydrochloride], the IC50 in data set [1] was 0.0084 µg/mL; in data set [2] it was 0.0267 µg/mL; in data set [3], 0.0193 µg/mL; in data set [4], greater than 10 µg/mL; in data set [6], 0.0469 µg/mL. The Mortality rate in data set [5] (total dose 25 mg/kg) and in data set [5] (total dose 50 mg/kg) was 0/5 in each case.

As for `CC1(C)Oc2cc3c4c(c5ccc(O)cc5c3cc2O1)[C@H](O)[C@@H]1CCCN1C4.Cl` [Compound 9, (12aS,13S)-6,7-isopropylidenedioxy-9,10,11,12,12a,13-hexahydro-9a-aza-cyclopenta[b]triphenylene-3,13-diol hydrochloride], the “NFκB inhibitory activity IC50” value in data set [1] amounted to 0.5216 µg/mL. The “SW480 proliferation inhibitory action IC50” value in data set [2] turned out to be 1.955 µg/mL. Further, the “A549 proliferation inhibitory action IC50” value in data set [3] amounted to 0.3502 µg/mL. In data set [4], the “SV40 promoter inhibitory activity IC50” value is greater than 10 µg/mL. The Mortality rate in data set [5] (total dose 25 mg/kg) and in data set [5] (total dose 50 mg/kg) was 0/5 throughout. For the same molecule, in data set [6], the “HT-29 proliferation inhibitory action IC50” value came to 0.184 µg/mL.

Take `CCOc1cc2c3c(c4ccc(O)cc4c2cc1OCC)[C@H](O)[C@@H]1CCCN1C3.Cl` [Compound 10, (12aS,13S)-6,7-diethoxy-9,10,11,12,12a,13-hexahydro-9a-aza-cyclopenta[b]triphenylene-3,13-diol hydrochloride]: the IC50 in data set [1] is 0.0041 µg/mL; in data set [2], 0.0067 µg/mL; in data set [3] it was 0.00027 µg/mL; in data set [4] it was greater than 0.1 µg/mL; in data set [6] it was 0.00047 µg/mL. For the same molecule, the Mortality rate in data set [5] (total dose 25 mg/kg) and in data set [5] (total dose 50 mg/kg) was 0/5 throughout.

On to `COc1cc2c3c(c4ccc(O)cc4c2cc1OC)C[C@H]1CCCN1C3.Cl` [Compound 12, (R)-6,7-dimethoxy-9,10,11,12,12a,13-hexahydro-9a-aza-cyclopenta[b]triphenylene-3-ol hydrochloride], for which the IC50 in data set [1] is 0.0181 µg/mL; in data set [2], 0.0504 µg/mL; in data set [3] it was 0.0127 µg/mL; in data set [4], greater than 10 µg/mL; in data set [6], 0.0504 µg/mL. The “Tumor growth inhibition rate IR” value is on record as 25.3% in data set [7] (total dose 25 mg/kg) and 58.8** % in data set [7] (total dose 50 mg/kg). Besides, the Mortality rate in data set [5] (total dose 25 mg/kg) and in data set [5] (total dose 50 mg/kg) was 0/5 throughout.

On to `Cl.Oc1ccc2c3c(c4cc5c(cc4c2c1)OCO5)CN1CCC[C@H]1C3` [Compound 13, (S)-6,7-methylenedioxy-9,10,11,12,12a,13-hexahydro-9a-aza-cyclopenta[b]triphenylene-3-ol hydrochloride], for which the IC50 was 0.0484 µg/mL in data set [1]; 0.0387 µg/mL in data set [2]; 0.0482 µg/mL in data set [3]; greater than 10 µg/mL in data set [4]; 0.261 µg/mL in data set [6]. The entries for the “Tumor growth inhibition rate IR” value in data set [7] (total dose 25 mg/kg) and in data set [7] (total dose 50 mg/kg) were 45.6* % and 31.5%, respectively. Also, the Mortality rate in data set [5] (total dose 25 mg/kg) and in data set [5] (total dose 50 mg/kg) was 0/5 each time.

On to `COc1cc2c3c(c4ccc(O)cc4c2cc1OC)CN1CCC[C@H]1[C@H]3O.Cl` [Compound 15, (12aS,13S)-2,3-dimethoxy-9,10,11,12,12a,13-hexahydro-9a-aza-cyclopenta[b]triphenylene-6,13-diol hydrochloride], for which the IC50 was 0.002 µg/mL in data set [1]; 0.0042 µg/mL in data set [2]; 0.034 µg/mL in data set [3]; greater than 10 µg/mL in data set [4]; 0.0566 µg/mL in data set [6]. For the same molecule, the Mortality rate in data set [5] (total dose 25 mg/kg) and in data set [5] (total dose 50 mg/kg) was 0/5 each time.

In the case of “(S)-6,7-dimethoxy-9,10,11,12,12a,13-hexahydro-9a-aza-cyclopenta[b]triphenylene-3-ol methanesulfonate [Compound 16]”, the “Tumor growth inhibition rate IR” value in data set [8] (total dose 100 mg/kg) is 35.7*** %; in data set [8] (total dose 200 mg/kg) it was 48.7*** %.
